Laboratory results published in patent US20060063930A1, “Compositions and methods comprising proteinase activated receptor antagonists” (priority 2004, published 2006).

Tests used:
BALB/c mice, arthritis = assay: Anti-collagen II antibody/LPS arthritis in mice (hind feet thickness); assay type: in vivo, mouse; conditions: 200 mg/kg/day intraperitoneally for 7 days
Method: (§1) On day 0, BALB/c mice were injected intravenously with the 1-2 mg 1B11 monoclonal anti-collagen II antibody. On day 1, animals were injected intraperitoneally with 20 μg LPS, and treatment with PAR-2 antagonists (200 mg/kg/day, intraperitoneally) for 7 days. After treatment was completed, disease is quantified by measuring the thickness (swelling) in both hind feet of the mouse. This was compared to untreated mice (p<0.05 vs. vehicle control).

[1] = tested on: BALB/c mice, LPS induced weight loss; assay: Arthrogen-CIA induced body weight loss in mice; assay type: in vivo, mouse; conditions: 200 mg/kg/day intraperitoneally for 7 days
Method: as §1, with “i.v.” for “intravenously”, “mg/kg/day” for “mg/kg/day,”, “mice. This model results in significant weight loss associated with the administration of LPS.” for “mice (p<0.05 vs. vehicle control).”

PAR-1 = target: T1, PAR-1 (Homo sapiens, UniProt P25116); assay: Inhibition of PAR-1 activation peptide (SFLLRN) calcium signaling in pretreated cells; assay type: cell-based; conditions: cells pretreated with antagonist
T1 construct: endogenous in cells
T1 sequence (P25116 22-425): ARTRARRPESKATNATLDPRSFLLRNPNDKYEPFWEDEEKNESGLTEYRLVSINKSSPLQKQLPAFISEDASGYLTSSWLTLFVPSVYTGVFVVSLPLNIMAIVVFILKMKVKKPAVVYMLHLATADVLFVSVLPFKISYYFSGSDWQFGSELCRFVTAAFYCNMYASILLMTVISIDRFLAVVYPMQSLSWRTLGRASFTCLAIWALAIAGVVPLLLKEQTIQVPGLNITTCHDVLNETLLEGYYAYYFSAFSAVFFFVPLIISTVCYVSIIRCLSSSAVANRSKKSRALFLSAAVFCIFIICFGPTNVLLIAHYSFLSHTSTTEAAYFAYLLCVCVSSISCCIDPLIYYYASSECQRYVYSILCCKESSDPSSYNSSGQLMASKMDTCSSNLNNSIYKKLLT
Method: (§2) In order to assess the potential of peptides and molecules selected above to block PAR-2 signaling, cells were pretreated with potential antagonist peptides for a predetermined amount of time and were subsequently treated with various GPCR agonists. Confluent Lewis lung carcinoma (LLC) cells were loaded for 30-60 minutes with the fluorescent dye Fluo-4. Final concentration 4 uM Fluo-4, 0.02% pluronic acid in physiological buffer. Cells were then washed with assay buffer, (HBSS containing 1 mM CaCl2, 1 mM MgSO4, and 2.5 mM probenecid). Cells were stimulated with various doses of PAR-2 activating peptide, PAR-1 activating peptide or ATP. Fluorescence was monitored using a Wallac 1470 fluorescent plate reader. (See Al-ani et. al Journal of Pharmacology and Experimental Therapeutics 290:2, 753-760). Additional compound screening was performed using U87-MG human glioma cells. In this assay cells were labeled with FLIPR Calcium 3 dye (Component A), which was dissolved in 10 mls of Assay Buffer without Probenecid. Loading buffer was prepared by diluting Component A with an additional 90 mls of Assay Buffer without Probenecid, giving a total volume of a 100 ml. […] Calcium signaling was then measured using a Flexstation II (Molecular Devices) following manufacturer's instructions. […]

PAR-2 [2] = assay: Inhibition of PAR-2 activating peptide (AP2) calcium signaling in cells pretreated with antagonist; assay type: cell-based, human
Procedure, shortened: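 LLC cells loaded with Fluo-4 (4 uM final), and U87-MG glioma cells loaded with FLIPR Calcium 3 dye with 2.5 mM probenecid, were pretreated with antagonist, then stimulated with PAR-2 activating peptide. Initial screening was at 1 mM. Calcium AUC of treated over control wells is reported as T/C.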

PAR-2 [3] = assay: PAR signalling activity: calcium mobilization (Fluo-4) in response to peptide; assay type: cell-based; conditions: FIGS. 2A-2C
Method: Confluent HUVECs, Lewis lung carcinoma cells or U87-MG glioma cells or HT29 colon carcinoma cells were loaded for 30-60 minutes with the fluorescent dye Fluo-4. Final concentration 4 uM Fluo-4, 0.02% pluronic acid in physiological buffer. Cells were then washed with assay buffer, (HBSS containing 1 mM CaCl2, 1 mM MgSO4, and 2.5 mM probenecid). Cells were stimulated with various doses of PAR-2 activating peptide, PAR-1 activating peptide or ATP. Fluorescence was monitored using a Wallac 1470 fluorescent plate reader. (See Al-ani et. al Journal of Pharmacology and Experimental Therapeutics 290:2, 753-760)
Calcium mobilization curves of the PAR-2 agonist SLIGKV (ENMD-1003) (SEQ ID NO:52) compared with two truncated molecules LIGK (ENMD-1005) (SEQ ID NO:1) and LIGKV (ENMD-1007) (SEQ ID NO:2) are provided in FIG. 2A. […] Similar studies were performed on alanine substituted SLIGKV (ENMD-1003) (SEQ ID NO:52) peptides (FIGS. 2B and 2C).

PAR-2 [4] = target: T2, PAR-2 (Mus musculus, UniProt P55086); assay: PAR-2 agonist peptide induced murine footpad edema model; assay type: in vivo; conditions: co-treatment in footpad, C57BL6 mice, 1 hour
T2 construct: from tissue; host or cells: footpad of living C57BL6 mice
T2 sequence (P55086 26-399): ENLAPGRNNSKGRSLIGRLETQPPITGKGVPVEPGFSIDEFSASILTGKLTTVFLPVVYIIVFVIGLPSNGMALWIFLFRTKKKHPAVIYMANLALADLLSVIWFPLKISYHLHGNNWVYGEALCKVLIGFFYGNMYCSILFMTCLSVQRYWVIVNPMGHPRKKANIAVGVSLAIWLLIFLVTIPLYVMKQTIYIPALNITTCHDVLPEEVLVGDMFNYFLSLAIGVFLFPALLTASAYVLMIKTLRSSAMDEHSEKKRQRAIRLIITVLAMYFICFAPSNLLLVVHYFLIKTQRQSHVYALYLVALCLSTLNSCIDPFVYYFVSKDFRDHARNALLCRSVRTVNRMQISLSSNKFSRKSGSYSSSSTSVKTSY
Method: C57BL6 mice were injected with 5-25 μg of SLIGKV (ENMD-1003) (SEQ ID NO:52) into their footpad, in the presence or absence of increasing amounts of various PAR-2 antagonists. One hour later, footpad (tarsus) thickness was measured to quantify inflammation (edema).
The inventors next assessed whether the LIGK (ENMD-1005) (SEQ ID NO:1) peptide had in vivo PAR-2 antagonistic activity. This was studied using an edema model where vascular permeability was induced by the PAR-2 agonist peptide. In this model, the PAR-2 peptide induces severe edema as previously reported (FIG. 6). This vascular response was blocked by co-treatment with the PAR-2 antagonist LIGK (ENMD-1005) (SEQ ID NO:1) (FIG. 6). Thus, LIGK (ENMD-1005) (SEQ ID NO:1) functions in vivo to block PAR-2 signaling.

ATP signaling = assay: Inhibition of ATP calcium signaling in pretreated cells; assay type: cell-based; conditions: cells pretreated with antagonist
Method: as §2

[5] = tested on: angiogenesis in Matrigel plug, C57/BL6 mice; assay: In vivo Matrigel angiogenesis assay (FGF-2, hemoglobin content in the plug); parameters: species or system mouse; conditions: subcutaneously daily for 6 days

Inhibitory effect on PAR-1 signaling (PAR-1): no inhibitory effect
IC50 (PAR-2 [2]; AP2 stimulated HT29 cells (FIG. 4)): < 500 µM
Effect on PAR-2 peptide induced edema (vascular response) (PAR-2 [4]): blocked
Substance: LIGK [ENMD-1005]
Effect on inflammation / arthritis (BALB/c mice, arthritis): inhibited inflammation
Effect on LPS induced weight loss [1]: abrogated this LPS induced weight loss
Block of AP2 signaling (PAR-2 [2]; 1 mM LIGK against 100 uM SLIGKV (FIG. 3)): completely blocked
PAR-2 antagonist activity in vitro (in words) (PAR-2 [2]; pretreated cells, then P2AP): demonstrated antagonist activity
Calcium mobilization / PAR-2 signaling activity (in words) (PAR-2 [3]): Neither truncated molecule was able to induce calcium mobilization
Inhibitory effect on ATP signaling (ATP signaling): no inhibitory effect
Inhibition of angiogenesis (hemoglobin content in the plug) ([5]; highest dose): more than 80%
Inhibition of angiogenesis (in words) [5]: dose dependent inhibition of angiogenesis
